Key:
Rodents [1] = experiment: Forced swim test (FST) after microinjection; format: in vivo, rats; settings: microinjection (intracerebroventricular), versus controls
From the text: (§1) In another embodiment, the present invention provides methods for altering the behavioral profiles of rats by injecting the rats with FGF2, an NCAM peptide mimetic, and a peptide inhibitor of FGF receptors. Both FGF2 and the NCAM peptide mimetic have antidepressant-like effects in the forced swim test when injected intracerebroventricularly. […] In one embodiment of the invention, ligands that activate FGF receptors are used for their antidepressant effects in the therapeutic treatment of individuals with MDD.
(§2) This is indicative of less depression-like behavior in FGF2 animals.
(§3) Again, this is an index of less depression-like behavior. This is also in the same direction as the FGF2 data, consistent with the fact that both FGF2 and NCAM interact with the FGF receptor.
(§4) These observations are nevertheless consistent with the conclusions drawn from the microinjection studies above.

Rodents [2] = experiment: Elevated plus maze (EPM) after microinjection; format: in vivo, rats; settings: microinjection (intracerebroventricular), versus controls
From the text: as §1, §2, §3, §4

Sprague-Dawley rats = experiment: Morris water maze learning and memory test in adults after early postnatal injection; format: in vivo; settings: 20 ng/g s.c. the day after birth, tested as adults; vehicle-injected rats 25 seconds
Procedure: (§5) Sprague-Dawley rats were injected with either vehicle or FGF2 (20 ng/g, s.c.) the day after birth and sacrificed after Morris water maze testing as adults. We assessed changes in gene expression using both a candidate approach and a gene discovery approach with laser-capture microdissection of the dentate gyrus followed by microarray analyses.

[3] = system: genes associated with neural plasticity; experiment: Long-term changes in hippocampal gene expression (histochemical and RNA expression assays); format: in vivo; settings: adult rats, 20 ng/g s.c. the day after birth
Procedure: as §5

rats = experiment: Elevated plus-maze (EPM) and light-dark (LD) anxiety test after chronic administration; format: in vivo; settings: 5 ng/g i.p. every 48 hours for 3 weeks
Procedure: Anxiety disorders have a high comorbidity with other neuropsychiatric disorders including Major Depression (MD). […] Rats were placed into “high anxiety” (LR) or “low anxiety” (HR) groups based on their behavior in a variety of motor and behavioral tests. Both groups of animals were administered either FGF2 (5 ng/g) or vehicle by intraperitoneal injection every 48 hours for 3 weeks. One day after the last FGF2 injection, all animals were tested in the elevated plus-maze (EPM) and light-dark (LD) anxiety test.
The apparatus for the EPM test is constructed of black Plexiglass with […] (70 cm from the floor, 45 cm long, and 12 cm wide). Illumination is provided by a 40-watt desk lamp facing a wall and placed behind one of the closed arms. The scientists put the animal inside the system. Animals that are less anxious spend more time in the open arms whereas animals that are more anxious spend less time in the open arms.
The LD test is conducted in a 30×60×30-cm Plexiglas shuttle box with a translucent cover. Each box is divided into two equal-sized compartments by a wall with a 12 cm-wide open door. One compartment is painted white and brightly illuminated, and the other is painted black with very dim light. The time each rat spends in each compartment is monitored by rows of five photocells located 2.5 cm above the grid floor of each compartment. […]

[4] = system: FGFR2 and FGFR3 exon IIIc:IIIb splice variant ratio; experiment: Real time RT-PCR of exon IIIc:IIIb splice variant ratio in frontal cortex, chronic unpredictable stress; format: in vivo, rats; settings: 5 ng/g i.p. every 48 hours for three weeks
Procedure: Half of the rats (n=12) were administered vehicle (0.1M PBS with 100 μg/mL bovine serum albumin), and the other half (n=12) were administered human recombinant FGF2 dissolved in vehicle in 5 ng/g dosages (Sigma, St. Louis, Mo.) every 48 hours for three weeks. All treatments were injected intra-peritoneally. During the same three week period as the FGF2 treatments, the vehicle group was either handled (n=6) or exposed to CUS (n=6). Likewise, the FGF2 injected group was either handled (n=6) or exposed to CUS (n=6). […]
Gross dissections were performed on the frontal cortex of all brains. […] Using the Bioanalyzer's concentration readings, the samples were normalized to 25 ng/μL of total RNA per subject and stored at −80° C.
cDNA was synthesized using the iScript cDNA Synthesis Kit (Bio-Rad, Hercules, Calif.). […] The double-stranded cDNA solutions were then analyzed for quality and concentration using Invitrogen's Quant-iT PicoGreen dsDNA kit. […] The fluorescently labeled samples were analyzed with a 1420 Victor^2 Multilabel Counter (EG&G Wallac, Wellesley, Mass.) using the basic Fluorescein protocol. […]
Sequences for rat FGFR2 and FGFR3 exons were obtained from NCBI's Entrez Gene database (www.ncbi.nlm.nih.gov) and the Ensembl-Rat gene database (www.ensembl.org). […] FGFR2 and FGFR3 exon sequences were analyzed for secondary structure using the Mfold nucleic acid folding web server. […]

Substance | immobility in the FST (Rodents [1]) | swimming in the FST (Rodents [1]) | time in the closed arms of the EPM (Rodents [2]) | time in the open arms of the EPM (Rodents [2]) | time on average to find a hidden platform in Morris Water maze test (Sprague-Dawley rats) [s] | expression of CCK [3] | expression of GAP-43 [3] | expression of NCAM [3] | expression of Rgs4 [3] | expression of SST [3] | expression of Vgf [3] | expression of trkB [3] | anxiety-reducing effects in innately more anxious (LR) rats (rats; LR versus HR rats) | anxiety versus animals who receive vehicle (rats; time in the light compartment (FIG. 9)) | effect on the magnitude of ratio changes caused by stress [4] | effect on the IIIc:IIIb ratio in the NS or S group ([4]; P>0.1) | climbing in the FST (Rodents [1]) | time in the center quadrant of the EPM (Rodents [2])
FGF2: FGF receptor ligand; human recombinant FGF2 (Sigma) in Example 6 | less immobility | more swimming | significantly more time | less time | 20 | increased | increased | decreased | increased | increased | increased | increased | clearly more pronounced | less anxious | nor did it significantly affect | did not alter the IIIc:IIIb ratio significantly |  | 
FGF system peptide inhibitor: FGF system peptide inhibitor, amino acid sequence=HFKDPKRLY; SEQ ID NO:35 (FGF system peptide inhibitor) [reference compound] | more immobility | less swimming | less time | equal time |  |  |  |  |  |  |  |  |  |  |  |  | significantly less climbing | significantly more time
NCAM: NCAM (FGL peptide), amino acid sequence=EVYVVAENQQGKSKA (SEQ ID NO:34); interacts with the FGF receptor (NCAM (FGL peptide)) | less immobility |  | more time (although not significantly more time) | less time |  |  |  |  |  |  |  |  |  |  |  |  |  | significantly less time

Source: US9234242B2, “Methods for treating depression using NCAM peptide mimetics” (THE BOARD OF THE TRUSTEES OF THE LELAND STANFORD JUNIOR …, priority 2005, dated 2016)
